The values that follow come from patent US6410596B1 (Insmed Incorporated, priority 2000, dated 2002).

Data set [1] has as its system C57BL/ks diabetic (db/db) mice. Nature of the data set: Plasma glucose lowering in diabetic db/db mice. It is filed as in vivo. As to conditions: for Change in Glucose 6 H: 125 mg/kg q.d. oral (0, 24, 48 h), 6 h after initial dose, Table 8 experiment (FIG. 5). How it is done: (§1) Genetically altered obese diabetic mice (designated C57BL/ks diabetic or db/db) were purchased from the Jackson Laboratory (Bar Harbor, Me., USA), and served as experimental animals. Male animals between the ages of 8-9 weeks were employed in the studies described here. Animals were housed (4 mice/cage) under standard laboratory conditions at 22° C. and 50% relative humidity, and were maintained on a diet of Purina rodent chow and water ad libitum. Prior to treatment, blood was collected from the tail vein of each a nimal. Mice that had plasma glucose levels between 350 and 600 mg/dL were used. Each treatment group consisted of eight mice that were distributed so that the mean glucose levels were equivalent in each group at the start of the study. Db/db mice received, orally by gavage: the experimental compound administered at 62.5, 125, or 250 mg/kg/day (unless otherwise noted), or metformin administered at […] for 1-3 days, Test compounds were delivered in a liquid vehicle containing 0.25% (w/v) carboxymethyl-cellulose, 1% (v/v) Tween 60® (polyoxyethylene sorbitan monosterate), and up to 10% (v/v) dimethyl sulfoxide (DMSO) in a volume of 10 ml/kg. Blood was sampled from the tail vein at three hours, six, eight, twenty-four, and thirty hours post-administration (the first administration) of the particular compound in non-fasted conditions. Experiments 3-5 also sampled blood at fifty-four hours post-administration (the first administration) of the particular compound in non-fasted conditions. Blood samples were analyzed for plasma glucose levels. Individual body weights and mean food consumption (each cage) were also measured daily.
The isolated test substances were prepared as described previously (vide supra). Metformin (1,1-dimethylbiguanide), carboxymethyl cellulose and Tween 60 were purchased from Sigma Chemical Co. (St. Louis, Mo., USA; catalog #'s D-5035, C-4888, and p-1629, respectively). Plasma glucose levels were determined […] using glucose oxidase (Sigma Chemical Co.; Sigma catalog #315). Significant differences between groups (comparing compound-treated to vehicle-treated) were evaluated using analysis of variance and Fisher's post-hoc test. […]

The nature of data set [2]: Body weights and food consumption in diabetic db/db mice. It is filed as in vivo. How it is done:
as §1

The mark [3] stands for this setting: 125 mg/kg oral, Table 10 experiment.
Setting [4] is: 125 mg/kg, Table 10/11 experiment.
[5] abbreviates: 125 mg/kg oral, Table 8 experiment.

In the case of “5-hydroxy-3-methoxy-2-(3-methyl-2-butenyl)stilbene [Compound A]”, the “mean glucose levels declined from the baseline values” in data set [1] (decline, 62.5 mg/kg, 30 h after initial dosing, Tables 4/6 experiment) is given as 40.7 mg/dL; in data set [1] (decline, 125 mg/kg, 30 h after initial dosing, Tables 4/6 experiment), 69.7 mg/dL; in data set [1] (decline, 250 mg/kg (also metformin 250 mg/kg), 30 h after initial dosing, Tables 4/6 experiment), 221.4 mg/dL.

In the case of `COc1cc(/C=C/c2ccccc2)c(C(=O)O)c(O)c1CC=C(C)C` [Compound C, 3-hydroxy-4-(3-methyl-2-butenyl)-5-methoxystilbene-2-carboxylic acid], the “effect on food intake or body weight” value in data set [2] (62.5 mg/kg, 125 mg/kg, and 250 mg/kg, Tables 4/6 experiment) is given as “absence of any significantly adverse effect on food intake or body weight”; in data set [2] (250 mg/kg, FIG. 2 experiment) it was “absence of any significantly adverse effect on food intake or body weight”. Moreover, the “food intake versus normal food intake range (5-6 g/day/mouse)” value in data set [2] (250 mg/kg, FIG. 2 experiment) is listed as “less than that of the normal food intake range”; in data set [2] (250 mg/kg, Tables 4/6 experiment), “less than that of the normal food intake range”. The “hypoglycemic effect relative to vehicle” value in data set [1] (250 mg/kg oral, FIG. 2 experiment) is “statistically significant reduction in plasma glucose”; in data set [1] (62.5, 125, and 250 mg/kg oral, Tables 4/6 experiment), “statistically significant reduction in plasma glucose”. Moreover, the “mean glucose levels declined from the baseline value” in data set [1] (decline, 125 mg/kg, 54 h after initial dosing, Tables 4/6 experiment) is reported as 60.4 mg/dL. For the same molecule, the “mean glucose levels declined from the baseline values” in data set [1] (decline, 250 mg/kg (also metformin 250 mg/kg), 54 h after initial dosing, Tables 4/6 experiment) is given as 122.0 mg/dL.

Consider `COc1cc(/C=C/c2ccccc2)cc(O)c1CC=C(C)C` [Compound D, 3-hydroxy-5-methoxy-4-(3-methyl-2-butenyl)stilbene], for which, in data set [2] (125 mg/kg, Table 11), the “Food Intake 0-48 h” value was 5.7 g/mouse, the “Body weight (mean) 0 h” value came to 39.3 ± 0.6 g/mouse and the “Body weight (mean) 48 hr” value amounted to 39.7 ± 0.7 g/mouse. Besides, the “hypoglycemic effect relative to vehicle” value in data set [1] (setting [3]) is on record as “statistically significant reduction in plasma glucose”.

On to `COc1cc(O)cc(CCc2ccccc2)c1CC=C(C)C` [Compound E], for which, in data set [2] (125 mg/kg, Table 11), the “Food Intake 0-48 h” value is listed as 5.7 g/mouse, the “Body weight (mean) 0 h” value is reported as 39.6 ± 0.3 g/mouse and the “Body weight (mean) 48 hr” value was found to be 40.2 ± 0.4 g/mouse. Further, in data set [2] (125 mg/kg, Table 8 experiment), the “effect on food intake or body weight” value is on record as “absence of any significantly adverse effect on food intake or body weight”. For the same molecule, the “effect on food intake or body weight” value in data set [2] (setting [4]) is “absence of any significantly adverse effect on food intake or body weight”. Further, the “hypoglycemic effect relative to vehicle” value in data set [1] (setting [5]) was “statistically significant reduction in plasma glucose”. Also, the “hypoglycemic effect relative to vehicle” value in data set [1] (setting [3]) is recorded as “statistically significant reduction in plasma glucose”. Besides, the “Change in Glucose 6 H” value in data set [1] is -2.1 mg/dL.

For the molecule `COc1cc(O)cc(CCc2ccccc2)c1CCC(C)C` [Compound F], in data set [2] (125 mg/kg, Table 11), the “Food Intake 0-48 h” value was determined as 5.8 g/mouse, the “Body weight (mean) 0 h” value is on record as 39.3 ± 0.8 g/mouse and the “Body weight (mean) 48 hr” value was found to be 39.8 ± 0.8 g/mouse. For the same molecule, in data set [1] (setting [3]), the “hypoglycemic effect relative to vehicle” value is “statistically significant reduction in plasma glucose”.

On to `COc1cc(O)cc(CCc2ccccc2)c1` [Compound G, 3-hydroxy-5-methoxybibenzene], for which the “effect on food intake or body weight” value is on record as “absence of any significantly adverse effect on food intake or body weight” in data set [2] (125 mg/kg, Table 8 experiment) and “absence of any significantly adverse effect on food intake or body weight” in data set [2] (setting [4]). The “hypoglycemic effect relative to vehicle” value in data set [1] (setting [5]) is “statistically significant reduction in plasma glucose”. The “Change in Glucose 6 H” value in data set [1] is 35.0 mg/dL.

`CN(C)C(=N)N=C(N)N` [Metformin, 1,1-dimethylbiguanide, reference compound]: in data set [2] (250 mg/kg, Table 5), the “Food Intake 0-48 h” value was found to be 5.1 g/mouse, the “Body weight (mean) 0 h” value stood at 37.3 ± 0.7 g/mouse and the “Body weight (mean) 48 hr” value was determined as 37.2 ± 0.6 g/mouse.
